The assay has as its system L1210 leukemia ip in BDF1 mice, survival T/C. Description: NCI In Vivo Anticancer Drug Screen. Data for tumor model L1210 Leukemia (intraperitoneal) in B6D2F1 (BDF1) mice. Conditions: endpoint: mean survival time, higher = longer survival. The procedure, abridged:
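Transplanted-tumor mice were given test agent; controls received vehicle only. Survival readings from the two groups were divided (treated over control).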

Setting [1] is: dose: 100.0 mg/kg/injection, schedule: Q01DX001 (ip), vehicle: Klucel (hydroxypropylcellulose) (HPC).
[2] abbreviates: dose: 200.0 mg/kg/injection, schedule: Q01DX001 (ip), vehicle: Klucel (hydroxypropylcellulose) (HPC).
[3] abbreviates: dose: 100.0 mg/kg/injection, schedule: Q01DX001 (ip), vehicle: saline.
The mark [4] stands for this setting: dose: 200.0 mg/kg/injection, schedule: Q01DX001 (ip), vehicle: saline.
The mark [5] stands for this setting: dose: 100.0 mg/kg/injection, schedule: Q04DX003 (ip), vehicle: saline.
Setting [6] is: dose: 200.0 mg/kg/injection, schedule: Q04DX003 (ip), vehicle: saline.
[7] abbreviates: dose: 400.0 mg/kg/injection, schedule: Q04DX003 (ip), vehicle: saline.
Setting [8] is: dose: 200.0 mg/kg/injection, schedule: Q04DX003 (ip), vehicle: saline with Tween-80.
The mark [9] stands for this setting: dose: 400.0 mg/kg/injection, schedule: Q01DX001 (ip), vehicle: saline.
The mark [10] stands for this setting: dose: 75.0 mg/kg/injection, schedule: Q01DX001 (ip), vehicle: carboxymethylcellulose (CMC).
Where [11] appears, read: dose: 150.0 mg/kg/injection, schedule: Q01DX001 (ip), vehicle: carboxymethylcellulose (CMC).
[12] abbreviates: dose: 100.0 mg/kg/injection, schedule: Q04DX003 (ip), vehicle: saline with Tween-80.
[13] abbreviates: dose: 400.0 mg/kg/injection, schedule: Q04DX003 (ip), vehicle: saline with Tween-80.
Setting [14] is: dose: 100.0 mg/kg/injection, schedule: Q04DX003 (ip), vehicle: Klucel (hydroxypropylcellulose) (HPC).
The mark [15] stands for this setting: dose: 100.0 mg/kg/injection, schedule: Q04DX002 (ip), vehicle: saline with Tween-80.
Where [16] appears, read: dose: 200.0 mg/kg/injection, schedule: Q04DX002 (ip), vehicle: saline with Tween-80.
Setting [17] is: dose: 25.0 mg/kg/injection, schedule: Q01DX009 (ip), vehicle: saline with Tween-80.
Where [18] appears, read: dose: 50.0 mg/kg/injection, schedule: Q01DX009 (ip), vehicle: saline with Tween-80.
Where [19] appears, read: dose: 100.0 mg/kg/injection, schedule: Q01DX009 (ip), vehicle: saline with Tween-80.

Toxic doses and inconclusive results are not listed.

As for `O=C1Cc2cc3c(cc2C=C2CCCN12)OCO3`, the T/C was 103 % of control (dose: 50.0 mg/kg/injection, schedule: Q01DX001 (ip), vehicle: Klucel (hydroxypropylcellulose) (HPC)); 97 % of control under setting [1]; 101 % of control under setting [2].

Turning to `C=C(COC(C)(C)C)CN(C)C`, the T/C is 94 % of control under setting [3] and 93 % of control under setting [4].

With `CNC(C)Cc1ccccc1OC` (stereo unspecified), the T/C is 103 % of control (dose: 25.0 mg/kg/injection, schedule: Q04DX003 (ip), vehicle: saline); 101 % of control (dose: 50.0 mg/kg/injection, schedule: Q04DX003 (ip), vehicle: saline); 92 % of control under setting [5].

Regarding `C[C@]12CCC(=O)C=C1CC[C@@H]1[C@@H]2[C@@H](O)C[C@@]2(C)[C@H]1CC[C@]2(C)O`, the T/C runs as follows: (dose: 50.0 mg/kg/injection, schedule: Q01DX009 (ip), vehicle: saline) 91 % of control; (dose: 100.0 mg/kg/injection, schedule: Q01DX009 (ip), vehicle: saline) 97 % of control; (dose: 200.0 mg/kg/injection, schedule: Q01DX009 (ip), vehicle: saline) 102 % of control.

As for `CCCCCCCCCCCCCCCCCCN=C(Cl)Cl`, the T/C under setting [1] was 88 % of control; the T/C under setting [2] is 96 % of control; the T/C (dose: 400.0 mg/kg/injection, schedule: Q01DX001 (ip), vehicle: Klucel (hydroxypropylcellulose) (HPC)) is 98 % of control.

On to `NS(=O)(=O)c1ccc(C(=O)NO)cc1`, for which the T/C under setting [5] was 100 % of control, the T/C under setting [6] was 110 % of control and the T/C under setting [7] is 102 % of control.

Turning to `CCSc1ncnc2c1ncn2C1OC(CO)C(O)C1O` (stereo unspecified), the T/C reads like this: (dose: 132.0 mg/kg/injection, schedule: Q04DX003 (ip), vehicle: saline with Tween-80) 116 % of control; under setting [8], 124 % of control.

As for `O=C1c2ccccc2C(=O)N1OCCCBr`, the T/C runs as follows: (dose: 50.0 mg/kg/injection, schedule: Q01DX001 (ip), vehicle: saline) 96 % of control; under setting [3], 102 % of control; under setting [4], 102 % of control; under setting [9], 102 % of control.

Take `CC(C)(C)NNC(C)(C)C`: the T/C is, setting by setting: (dose: 9.38 mg/kg/injection, schedule: Q01DX001 (ip), vehicle: other) 102 % of control; (dose: 18.75 mg/kg/injection, schedule: Q01DX001 (ip), vehicle: other) 96 % of control; (dose: 37.5 mg/kg/injection, schedule: Q01DX001 (ip), vehicle: other) 96 % of control.

In the case of `CC(N)C12CC3CC(CC(C3)C1)C2` (stereo unspecified), the T/C (dose: 75.0 mg/kg/injection, schedule: Q01DX009 (ip), vehicle: saline) is 94 % of control.

As to `CN(C)N=Nc1ccccc1C(=O)NNC(N)=S`, the T/C was 109 % of control (dose: 18.75 mg/kg/injection, schedule: Q01DX009 (ip), vehicle: Klucel (hydroxypropylcellulose) (HPC)); 116 % of control (dose: 37.5 mg/kg/injection, schedule: Q01DX009 (ip), vehicle: Klucel (hydroxypropylcellulose) (HPC)); 89 % of control (dose: 75.0 mg/kg/injection, schedule: Q01DX009 (ip), vehicle: Klucel (hydroxypropylcellulose) (HPC)).

Turning to `CC(Cc1ccccc1)N(C)CC1C(=O)C2CCC1C2` (stereo unspecified), the T/C runs as follows: under setting [10], 102 % of control; under setting [11], 96 % of control; (dose: 300.0 mg/kg/injection, schedule: Q01DX001 (ip), vehicle: carboxymethylcellulose (CMC)) 96 % of control.

For the molecule `COC(=O)c1nc[nH]c1C(=O)OC`, the T/C is 112 % of control under setting [5], 93 % of control under setting [6] and 109 % of control under setting [7].

In the case of `O=C(CCCCCl)Nc1cccc2c1C(=O)c1c(c(O)c3ccccc3c1O)C2=O`, the T/C was 98 % of control under setting [12], 90 % of control under setting [8] and 90 % of control under setting [13].

In the case of `CCCCn1c(N)n[nH]c1=S`, the T/C is 100 % of control under setting [12], 90 % of control under setting [8] and 94 % of control under setting [13].

As to `C[C@]12CCC(=O)C=C1CC[C@H]1[C@@H]3CCC(=O)O[C@@]3(C)CC(=O)[C@@]12F`, the T/C is, setting by setting: (dose: 100.0 mg/kg/injection, schedule: Q01DX001 (ip), vehicle: carboxymethylcellulose (CMC)) 94 % of control; (dose: 200.0 mg/kg/injection, schedule: Q01DX001 (ip), vehicle: carboxymethylcellulose (CMC)) 100 % of control; (dose: 400.0 mg/kg/injection, schedule: Q01DX001 (ip), vehicle: carboxymethylcellulose (CMC)) 97 % of control.

For the molecule `O=C(COc1ccc(Cl)cc1Cl)NCCBr`, the T/C is 91 % of control (dose: 100.0 mg/kg/injection, schedule: Q01DX009 (ip), vehicle: Klucel (hydroxypropylcellulose) (HPC)); 92 % of control (dose: 200.0 mg/kg/injection, schedule: Q01DX009 (ip), vehicle: Klucel (hydroxypropylcellulose) (HPC)); 96 % of control (dose: 400.0 mg/kg/injection, schedule: Q01DX009 (ip), vehicle: Klucel (hydroxypropylcellulose) (HPC)).

Regarding `O=C1NC(=O)C(c2ccco2)N1` (stereo unspecified), the T/C was 105 % of control under setting [14]; 103 % of control (dose: 200.0 mg/kg/injection, schedule: Q04DX003 (ip), vehicle: Klucel (hydroxypropylcellulose) (HPC)); 114 % of control (dose: 400.0 mg/kg/injection, schedule: Q04DX003 (ip), vehicle: Klucel (hydroxypropylcellulose) (HPC)).

Regarding `Cc1ccc(SC2=C(Br)C(=O)c3ccccc3C2=O)cc1`, the T/C by setting is: (dose: 37.5 mg/kg/injection, schedule: Q01DX001 (ip), vehicle: carboxymethylcellulose (CMC)) 92 % of control; under setting [10], 94 % of control; under setting [11], 103 % of control.

With `CCCCCCCCC(CO)(CCCCCCC)C(=O)O` (stereo unspecified), the T/C was 88 % of control under setting [15] and 88 % of control under setting [16].

On to `CN(C)C(=O)Sc1ccc2ccc3ccccc3c2c1`, for which the T/C (dose: 50.0 mg/kg/injection, schedule: Q04DX002 (ip), vehicle: saline with Tween-80) is 108 % of control; the T/C under setting [15] is 104 % of control; the T/C under setting [16] was 108 % of control.

On to `N#CSC/C(Br)=C/Br`, for which the T/C was 99 % of control (dose: 6.25 mg/kg/injection, schedule: Q01DX009 (ip), vehicle: saline with Tween-80); 96 % of control (dose: 12.5 mg/kg/injection, schedule: Q01DX009 (ip), vehicle: saline with Tween-80); 96 % of control under setting [17].

As for `Cc1cn(C2OC(CO)C(O[Si](C)(C)C)C(O[Si](C)(C)C)C2O[Si](C)(C)C)c(=O)[nH]c1=O` (stereo unspecified), the T/C is 97 % of control under setting [3], 94 % of control under setting [4] and 97 % of control under setting [9].

Turning to `O=Cc1cccc(CC(O)(C(F)(F)F)C(F)(F)F)n1`, the T/C under setting [17] was 101 % of control; the T/C under setting [18] is 101 % of control; the T/C (dose: 50.0 mg/kg/injection, schedule: Q04DX003 (ip), vehicle: saline with Tween-80) was 91 % of control; the T/C under setting [12] is 91 % of control; the T/C under setting [8] was 104 % of control.

As to `COC(=O)/C(Cl)=C(\Cl)C(=O)OC`, the T/C under setting [19] was 95 % of control, the T/C under setting [14] is 96 % of control, the T/C under setting [12] is 102 % of control and the T/C under setting [8] was 107 % of control.

`Fc1ccccc1N=C=S`: the T/C by setting is: (dose: 75.0 mg/kg/injection, schedule: Q01DX001 (ip), vehicle: other) 104 % of control; (dose: 150.0 mg/kg/injection, schedule: Q01DX001 (ip), vehicle: other) 93 % of control.

Take `O=C(OCc1ccc2c(c1)OCO2)C1CC1`: the T/C reads like this: under setting [15], 103 % of control; (dose: 400.0 mg/kg/injection, schedule: Q04DX002 (ip), vehicle: saline with Tween-80) 101 % of control.

Regarding `O=[N+]([O-])c1cc(C(F)(F)F)ccc1/C=C/c1ccccc1Br`, the T/C runs as follows: under setting [12], 105 % of control; under setting [8], 97 % of control; under setting [13], 101 % of control.

For `C=CCOCC(O)CN(CCCC)CCCC` (stereo unspecified), the T/C reads like this: under setting [17], 95 % of control; under setting [18], 97 % of control.

Take `COC(=O)CCNc1ccccc1`: the T/C was 108 % of control under setting [19]; 100 % of control (dose: 200.0 mg/kg/injection, schedule: Q01DX009 (ip), vehicle: saline with Tween-80); 102 % of control (dose: 400.0 mg/kg/injection, schedule: Q01DX009 (ip), vehicle: saline with Tween-80).

Values taken from PubChem BioAssay AID248 (DTP/NCI, 2004).
